Measurements taken from paper doi:10.64898/2025.12.13.694138, “Structural insights into xyloglucan recognition by an ABC transporter from a Gram-positive, thermophilic bacterium” (bioRxiv, 2025).
pKd: −log10 of the molar value. Read-outs that look alike come from different tables or passages of the source. One block for each compound: values may come before it.

What was measured:
Assay in all cases: ITC ([…] °C); DSC ΔTm […] °C
Format in all cases: binding
Athe_2052 [1] = biological target: T1, Athe_2052 (Caldicellulosiruptor bescii, UniProt B9MLD9)
T1 construct: Athe_2052 without its signal peptide, N-terminal hexa-histidine tag
T1 sequence (B9MLD9 entry or part of it): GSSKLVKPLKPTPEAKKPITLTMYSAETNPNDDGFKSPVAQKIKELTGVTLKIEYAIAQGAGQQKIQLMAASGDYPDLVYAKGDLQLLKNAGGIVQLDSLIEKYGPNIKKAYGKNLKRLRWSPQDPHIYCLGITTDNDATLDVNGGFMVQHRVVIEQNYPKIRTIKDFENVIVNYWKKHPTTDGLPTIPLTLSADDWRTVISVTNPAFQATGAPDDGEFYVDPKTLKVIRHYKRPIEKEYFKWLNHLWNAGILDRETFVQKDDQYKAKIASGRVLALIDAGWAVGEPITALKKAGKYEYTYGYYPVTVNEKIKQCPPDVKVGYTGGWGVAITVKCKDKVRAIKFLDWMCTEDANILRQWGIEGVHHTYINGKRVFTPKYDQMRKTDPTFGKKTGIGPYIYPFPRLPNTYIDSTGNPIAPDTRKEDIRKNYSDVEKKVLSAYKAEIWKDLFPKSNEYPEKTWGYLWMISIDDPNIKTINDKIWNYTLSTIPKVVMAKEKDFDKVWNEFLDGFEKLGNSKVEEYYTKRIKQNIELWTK

Athe_2052 [2] = biological target: T1, Athe_2052; remark: listed apart in the source
Athe_2052 [3] = biological target: T1, Athe_2052; remark: listed apart in the source

pKd (Athe_2052 [1]): 6.67
SMILES: OC[C@H]1O[C@@H](O[C@H]2[C@H](O)[C@@H](O)[C@H](O[C@H]3[C@H](O)[C@@H](O)[C@H](O[C@H]4[C@H](O)[C@@H](O)C(O)O[C@@H]4CO)O[C@@H]3CO)O[C@@H]2CO)[C@H](O)[C@@H](O)[C@@H]1O (stereo partly drawn) [Cellotetraose]

pKd (Athe_2052 [2]): 7.85
SMILES: OC[C@H]1OC(O)[C@H](O)[C@@H](O)[C@@H]1O[C@@H]1O[C@H](CO[C@H]2OC[C@@H](O)[C@H](O)[C@H]2O)[C@@H](O[C@@H]2O[C@H](CO[C@H]3OC[C@@H](O)[C@H](O)[C@H]3O)[C@@H](O[C@@H]3O[C@H](CO[C@H]4OC[C@@H](O)[C@H](O)[C@H]4O)[C@@H](O)[C@H](O)[C@H]3O)[C@H](O)[C@H]2O)[C@H](O)[C@H]1O (stereo partly drawn) [XXXG, xyloglucan heptasaccharide]

pKd (Athe_2052 [3]): 6.61
SMILES: OC[C@H]1O[C@@H](O[C@H]2[C@H](O)[C@@H](O)[C@H](O[C@H]3[C@H](O)[C@@H](O)C(O)O[C@@H]3CO)O[C@@H]2CO)[C@H](O)[C@@H](O)[C@@H]1O (stereo partly drawn) [Cellotriose]
